Results on 15 molecules are retold here after paper PMC7011943, “Discovery of novel PDE9A inhibitors with antioxidant activities for treatment of Alzheimer’s disease” (Journal of Enzyme Inhibition and Medicinal Chemistry, 2017).

“Also recorded” adds a separate entry of the source. Read-outs that look alike come from different tables or passages of the source.

One series addresses T1, PDE9A (Homo sapiens, UniProt O76083).
T1 construct: pET-PDE9A2 plasmid (catalytic domain, 181–506); made in house; host or cells: E. coli BL21 (Codonplus)
As to the kind of experiment: Enzymatic assay against PDE9A (3H-cGMP substrate). In kind it is biochemical.

The nature of series [1]: Antioxidant activity, oxygen radical absorbance capacity fluorescein (ORAC-FL) method. To be noted: for ORAC: samples 1–10 μM. As to the method: The antioxidant activity was determined by the modified oxygen radical absorbance capacity fluorescein (ORAC-FL) method[31]^,[32]. All the assays were diluted with 75 mM phosphate buffer (pH 7.4). The final reaction mixture was 200 μl. Test compound (20 μl) and fluorescein (120 μl, 150 nM final concentration) were placed in the wells of a black 96-well plate. After the mixture was incubated at 37 °C for 15 min, AAPH solution (60 μl, 12 mM final concentration) was added. The plate was placed in a Spectrafluor Plus plate reader (Tecan, Crailsheim, Germany) and the fluorescence was recorded every minute for 4 h with excitation at 485 nm and emission at 535 nm. Trolox was used as standard (1–8 μM, final concentration). A blank (FL + AAPH) in phosphate buffer instead of test compounds and trolox calibration were performed in each assay. The samples were measured at different concentration (1–10 μM). All the reaction mixture was prepared fourfold and at least three independent assays were performed for each sample. Fluorescence in time course was normalised on basis of the blank (without antioxidants). The ORAC-FL values were calculated as the reported method. ORAC-FL values were expressed as trolox equivalents.

Another series concerns SH-SY5Y cells. As to the kind of experiment: In vitro cell viability assay (MTT). In kind it is cell-based, human. To be noted: for cytotoxicity to SH-SY5Y cells (in words): 48 h, up to 100 μM. How it is done: (§1) SH-SY5Y cells were used for the cytotoxicity test by the MTT (3–(4, 5-dimethyl-2-thiazolyl)-2,5-diphenyl-2-H-tetrazoliumbromide) method. After incubation of the SH-SY5Y cells (5 × 10^3) in a 96-well plate for 24 h, compounds at concentrations of 10, 20, 40, 60, 80, and 100 μM, were added. After incubation for 48 h, MTT solution was added to each cell well and the system was further inoculated for 4 h at 37 °C. The purple formazan dye and 120 μl DMSO were added to the cells and the absorbance was measured at 570 nm using EnSpire-2300 Multimode Reader (PerkinElmer, Waltham, MA).

The target in a further series is T2, PDE8A (Homo sapiens, UniProt O60658).
T2 construct: The catalytic domains of PDE1B (10–516) and PDE8A (480–820); made in house
As to the kind of experiment: Enzymatic assay against PDE8A (3H-cAMP substrate). In kind it is biochemical.

Series [2] deals with T3, PDE1B (Homo sapiens, UniProt Q01064).
T3 construct: The catalytic domains of PDE1B (10–516) and PDE8A (480–820); made in house
As to the kind of experiment: Enzymatic assay against PDE1B (3H-cGMP substrate). The series is classed as biochemical. To be noted: 1000 nM (1 μM).
Description: (§2) The enzymatic activities of PDE1B and PDE8A were assayed by using ^3H-cGMP and ^3H-cAMP as the substrates, respectively, following the same procedure for PDE9A.

Series [3] in a line: In vitro cell viability assay (MTT). The series is classed as cell-based, human. As to conditions: human, SH-SY5Y cells, 48 h incubation, read-out: cellular viability. As to the method: as §1
Series [4] relates to PDE1B. As to the kind of experiment: Enzymatic assay against PDE1B (3H-cGMP substrate). In kind it is biochemical. As to conditions: estimated from inhibition at 1 μM.
Description: as §2
In series [5] the test system is PDE1B. As to conditions: printed under head 'Inhibition of PDE1B at 1000 nM'; cited from earlier work.
Setting [6] is: Table 1 and text, means of three independent determinations, read-out: IC50±SD.

T1 sequence (O76083 241-566): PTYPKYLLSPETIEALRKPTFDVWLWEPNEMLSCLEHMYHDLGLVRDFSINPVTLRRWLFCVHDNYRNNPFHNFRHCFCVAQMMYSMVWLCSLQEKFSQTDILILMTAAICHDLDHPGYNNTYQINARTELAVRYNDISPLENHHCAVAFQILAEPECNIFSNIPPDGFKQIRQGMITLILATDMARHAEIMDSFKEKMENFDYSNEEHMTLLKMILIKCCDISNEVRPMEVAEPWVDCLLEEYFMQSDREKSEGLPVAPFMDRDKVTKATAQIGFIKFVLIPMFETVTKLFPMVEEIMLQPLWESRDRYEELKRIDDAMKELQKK
T2 sequence (O60658 480-820): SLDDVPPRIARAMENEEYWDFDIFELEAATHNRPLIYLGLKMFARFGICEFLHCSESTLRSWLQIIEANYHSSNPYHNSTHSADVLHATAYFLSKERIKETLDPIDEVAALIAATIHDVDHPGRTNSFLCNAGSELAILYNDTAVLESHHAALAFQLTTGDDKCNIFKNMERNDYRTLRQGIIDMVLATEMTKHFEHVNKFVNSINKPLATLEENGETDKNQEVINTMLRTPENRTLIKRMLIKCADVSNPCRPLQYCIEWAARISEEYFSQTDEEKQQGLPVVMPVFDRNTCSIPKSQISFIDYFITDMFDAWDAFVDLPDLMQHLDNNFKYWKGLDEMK
T3 sequence (Q01064 10-516): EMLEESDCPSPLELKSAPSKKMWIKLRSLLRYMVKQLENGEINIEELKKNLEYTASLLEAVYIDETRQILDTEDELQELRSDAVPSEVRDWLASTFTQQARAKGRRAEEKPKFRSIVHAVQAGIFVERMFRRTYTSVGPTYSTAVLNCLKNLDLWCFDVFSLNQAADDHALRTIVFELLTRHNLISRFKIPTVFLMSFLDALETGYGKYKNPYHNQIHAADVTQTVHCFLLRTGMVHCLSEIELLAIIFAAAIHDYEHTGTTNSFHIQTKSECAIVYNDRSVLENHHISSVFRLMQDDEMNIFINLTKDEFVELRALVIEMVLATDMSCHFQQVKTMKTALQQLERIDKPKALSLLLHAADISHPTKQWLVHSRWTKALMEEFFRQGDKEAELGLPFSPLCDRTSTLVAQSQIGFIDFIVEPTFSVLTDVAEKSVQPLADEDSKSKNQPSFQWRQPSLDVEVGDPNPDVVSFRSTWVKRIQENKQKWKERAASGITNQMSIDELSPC
Description for PDE8A: as §2
Description for PDE9A: The E. coli cells carrying pET-PDE9A2 was grown in LB medium (containing 100 μg/ml ampicillin and 0.4% glucose) at 37 °C until OD600 = 0.6–0.8. 0.1 mM iso-propyl-β-D-thiogalactopyranoside was added to induce the PDE9A2 protein expression at 15 °C for 20 h. PDE9A was purified on the nickel nitriloacetic acid (Ni-NTA) column (Qiagen, Hilden, Germany) and eluted with 0.25 M imidazole. The concentration of PDE9A was estimated by the absorbance at 280 nm (calculated using ProtParam software, http://web.expasy.org/protparam). A typical batch of purification yielded 30–60 mg PDE9A2 protein from a 0.5 l cell culture. The PDE9A2 proteins had purity greater than 90% as shown by sodium dodecyl sulphate polyacrylamide gel electrophoresis (SDS-PAGE).
The enzymatic activities of the catalytic domain of PDE9A2 were measured by using ^3H-cGMP as the substrate and the assay buffer of 50 mM Tris-HCl (pH 8.0), 10 mM MgCl2, and 1 mM DTT. Each assay used ^3H-cGMP 20,000–30,000 cpm. The reaction was carried out at room temperature (25 °C) for 15 min and then terminated by addition of 0.2 M ZnSO4. The reaction product was precipitated by 0.2 N Ba(OH)2, whereas unreacted ^3H-cGMP remained in the supernatant. […] At least eight concentrations of inhibitors were measured parallel in each measurement, resulting an inhibition curve to calculate the IC50 value of inhibitors by nonlinear regression. Each measurement was repeated at least three times. The mean and standard deviation statistics of these three IC50 values were used as the final IC50 value and the corresponding SD.

One may read the IC50 as the point on the concentration scale where inhibition reaches its midpoint. Take `COc1ccc(/C=C/C(=O)N[C@H](C)c2nc3c(cnn3C3CCCC3)c(=O)[nH]2)cc1OC` [Compound 1c, (R, E)-N-(1–(1-cyclopentyl-4-oxo-4,5-dihydro-1H-pyrazolo[3,4-d]pyrimidin-6-yl)ethyl)-3– (3,4-dimethoxyphenyl)acrylamide]: on PDE9A (setting [6]), the concentration for half-maximal inhibition (IC50) is 65 ± 4 nM. Further, in series [1], the “ORAC-FL value / antioxidant activity (in words)” value is “low ORAC-FL values” and the ORAC is on record as 0.23 trolox equivalents.

Consider `COc1cc(/C=C/C(=O)N[C@H](C)c2nc3c(cnn3C3CCCC3)c(=O)[nH]2)ccc1O` [Compound 1a, (R, E)-N-(1–(1-cyclopentyl-4-oxo-4,5-dihydro-1H-pyrazolo[3,4-d]pyrimidin-6-yl)ethyl)-3–(4-hydroxy-3-methoxyphenyl)acrylamide], for which, on PDE9A (setting [6]), the 50% inhibitory concentration (IC50) was 126 ± 15 nM. The same molecule showed an ORAC in series [1] of 2.4 trolox equivalents.

For the molecule `C[C@@H](NC(=O)/C=C/c1ccc(O)cc1)c1nc2c(cnn2C2CCCC2)c(=O)[nH]1` [Compound 1g, (R, E)-N-(1–(1-cyclopentyl-4-oxo-4,5-dihydro-1H-pyrazolo[3,4-d]pyrimidin-6-yl)ethyl)-3–(4-hydroxyphenyl)acrylamide], at PDE9A (setting [6]), the concentration for half-maximal inhibition (IC50) worked out at 63 ± 3 nM. This molecule also displayed an ORAC in series [1] of 2.9 trolox equivalents.

`COc1cc(/C=C/C(=O)O)ccc1O` [Ferulic acid, reference compound]: the ORAC in series [1] is reported as 1.6 trolox equivalents.

What is called inhibition is the change of the read-out against control, counted positive when it falls. For `C[C@@H](NC(=O)CCCC[C@@H]1CCSS1)c1nc2c(cnn2C2CCCC2)c(=O)[nH]1` [Compound 2, N-((1N)-1–(1-cyclopentyl-4-oxo-3a, 4,5,6-tetrahydro-1H-pyrazolo[3,4-d]pyrimi–din-6-yl)ethyl)-5-((R)-1,2-dithiolan-3-yl)pentanamide], the cellular viability result with SH-SY5Y cells (100 μM, 48 h incubation) was “no significant effect on cell viability”. For the same molecule, in the series with SH-SY5Y cells, the “cytotoxicity to SH-SY5Y cells (in words)” value is recorded as “not toxic”. Besides, on PDE8A, at 10 µM the inhibition was 9%. Moreover, at 1 µM the inhibition at PDE1B [2] was 59%. Also, in series [1], the “ORAC-FL value / antioxidant activity (in words)” value was “low antioxidant activity” and the ORAC is given as 0.28 trolox equivalents.

With `C[C@@H](NC(=O)/C=C/c1cccc(Cl)c1)c1nc2c(cnn2C2CCCC2)c(=O)[nH]1` [Compound 1j, (R, E)-N-3–(3-chlorophenyl)-N-(1–(1-cyclopentyl-4-oxo-4,5-dihydro-1H-pyrazolo[3,4-d]pyrimidin-6-yl)ethyl)acrylamide], the IC50 at PDE9A (setting [6]) worked out at 186 ± 7 nM. In series [1], the “ORAC-FL value / antioxidant activity (in words)” value was “low ORAC-FL values” and the ORAC worked out at 0.08 trolox equivalents.

With `C[C@@H](NC(=O)Cc1ccc(O)c(O)c1)c1nc2c(cnn2C2CCCC2)c(=O)[nH]1` [Compound 1l, (R, E)-N-(1–(1-cyclopentyl-4-oxo-4,5-dihydro-1H-pyrazolo[3,4-d]pyrimidin-6-yl)ethyl)-2–(3,4-dihydroxyphenyl)acetamide], the half-inhibitory concentration (IC50) at PDE9A (setting [6]) is 57 ± 4 nM. The ORAC in series [1] is 2.6 trolox equivalents.

Take `C[C@@H](NC(=O)/C=C/c1ccc(C(F)(F)F)cc1)c1nc2c(cnn2C2CCCC2)c(=O)[nH]1` [Compound 1k, (R, E)-N-(1–(1-cyclopentyl-4-oxo-4,5-dihydro-1H-pyrazolo[3,4-d]pyrimidin-6-yl)ethyl)-3–(4-(trifluoromethyl)phenyl)acrylamide]: the IC50 at PDE9A (setting [6]) was found to be 130 ± 6 nM. Further, in series [1], the “ORAC-FL value / antioxidant activity (in words)” value is “low ORAC-FL values” and the ORAC amounted to 0.02 trolox equivalents.

Take `COc1cccc(/C=C/C(=O)N[C@H](C)c2nc3c(cnn3C3CCCC3)c(=O)[nH]2)c1` [Compound 1f, (R, E)-N-(1–(1-cyclopentyl-4-oxo-4,5-dihydro-1H-pyrazolo[3,4-d]pyrimidin-6-yl)ethyl)-3–(3-methoxyphenyl)acrylamide]: the 50% inhibitory concentration (IC50) at PDE9A (setting [6]) was found to be 190 ± 7 nM. In series [1], the “ORAC-FL value / antioxidant activity (in words)” value is on record as “low ORAC-FL values” and the ORAC amounted to 0.12 trolox equivalents.

On to `C[C@@H](NC(=O)/C=C/c1ccc(O)c(O)c1)c1nc2c(cnn2C2CCCC2)c(=O)[nH]1` [Compound 1b, (R, E)-N-(1–(1-cyclopentyl-4-oxo-4,5-dihydro-1H-pyrazolo[3,4-d]pyrimidin-6-yl)ethyl)-3–(3,4-dihydroxyphenyl)acrylamide], for which, on PDE9A (setting [6]), the IC50 worked out at 64 ± 2 nM. In series [1], this molecule gave an ORAC of 2.5 trolox equivalents.

Regarding `COc1ccc(/C=C/C(=O)N[C@H](C)c2nc3c(cnn3C3CCCC3)c(=O)[nH]2)cc1O` [Compound 1d, (R, E)-N-(1–(1-cyclopentyl-4-oxo-4,5-dihydro-1H-pyrazolo[3,4-d]pyrimidin-6-yl)ethyl)-3–(3-hydroxy-4-methoxyphenyl)acrylamide], on PDE9A (setting [6]), the IC50 came to 83 ± 11 nM. For the same molecule, in series [1], the ORAC was 1.26 trolox equivalents.

Consider `C[C@@H](NC(=O)/C=C/c1ccc(N(C)C)cc1)c1nc2c(cnn2C2CCCC2)c(=O)[nH]1` [Compound 1i, (R, E)-N-(1–(1-cyclopentyl-4-oxo-4,5-dihydro-1H-pyrazolo[3,4-d]pyrimidin-6-yl)ethyl)-3–(4-(dimethylamino)phenyl)acrylamide], for which the IC50 on PDE9A (setting [6]) is 133 ± 22 nM. Besides, in series [1], the ORAC is listed as 1.00 trolox equivalents.

In general, viability refers to the share of living cells, or the viability signal relative to a control. On to `C[C@@H](NC(=O)/C=C/c1cccc(O)c1)c1nc2c(cnn2C2CCCC2)c(=O)[nH]1` [Compound 1h, (R, E)-N-(1–(1-cyclopentyl-4-oxo-4,5-dihydro-1H-pyrazolo[3,4-d]pyrimidin-6-yl)ethyl)-3–(3-hydroxyphenyl)acrylamide], for which the “cytotoxicity to SH-SY5Y cells (in words)” value in the series with SH-SY5Y cells is “no cytotoxicity; also recorded: not toxic”. Further, the viability at 48 h, 40 µM in series [3] (40 μM) is around 90%. For the same molecule, the viability at 48 h, 100 µM in series [3] (100 μM) is around 70%. The molecule also returned an inhibition at 10 µM at PDE8A of 10%. Also, the “fold of selectivity against PDE9 over PDE8A” value on PDE8A (estimated from inhibition at 10 μM) is recorded as above 250 fold. At PDE1B [2], this molecule yielded an inhibition at 1 µM of 13%. Moreover, in the series with PDE1B [4], the “fold of selectivity against PDE9 over PDE1B” value was above 25 fold. For the same molecule, the IC50 at PDE9A (setting [6]) was determined as 56 ± 7 nM; at PDE9A (Table 2, read-out: IC50 (nM) of PDE9A), 56 ± 1 nM. Further, in series [1], the ORAC was 3.3 trolox equivalents.

Consider `Cc1c(C)c2c(c(C)c1O)CCC(C)(C(=O)N[C@H](C)c1nc3c(cnn3C3CCCC3)c(=O)[nH]1)O2` (stereo partly drawn) [Compound 3, N-((R)-1–(1-cyclopentyl-4-oxo-4,5-dihydro-1H-pyrazolo[3,4-d]pyrimidin-6-yl)ethyl) -6-hydroxy-2,5,7,8-tetramethylchromane-2-carboxamide], for which the half-maximal inhibitory concentration (IC50) at PDE9A (setting [6]) is above 500 nM. The ORAC in series [1] is 0.24 trolox equivalents.

In the case of `C[C@@H]1CN(Cc2ncccn2)C[C@H]1c1nc2c(cnn2C2CCOCC2)c(=O)[nH]1` [PF-04447943, 6-[(3S,4S)-4-Methyl-1-(pyrimidin-2-ylmethyl)pyrrolidin-3-yl]-1-(tetrahydro-2H-pyran-4-yl)-1,5-dihydro-4H-pyrazolo[3,4-d]pyrimidin-4-one], the half-inhibitory concentration (IC50) with PDE1B [5] was 1390 nM.
